ChEMBL document CHEMBL5214895, “3-Hydroxy-propanamidines, a New Class of Orally Active Antimalarials Targeting Plasmodium falciparum” (J Med Chem, 2021)
The source made the active and inactive calls. The rule behind the calls is not given here.

Legend:
[1] = Cmax in mouse infected with Plasmodium berghei at 10 mg/kg, po administered as single dose and measured for 24 hrs by LC-MS/MS analysis; format: ADME, organism-based; design: dose 10 mg/kg, time 24 hrs, route po; settings: in vivo
[2] = Observed AUC(0 to infinity) in mouse infected with Plasmodium berghei at 3 mg/kg, po administered as single dose and measured for 24 hrs by LC-MS/MS analysis; format: ADME, organism-based; design: dose 3 mg/kg, time 24 hrs, route po; settings: in vivo
[3] = test system: Plasmodium falciparum; assay: Antiplasmodial activity against hyper mutating Plasmodium falciparum Dd2 harboring proofreading-deficient DNA polymerase delta assessed as inhibition of parasite growth incubated for 72 hrs by SYBR green-based assay; format: functional, organism-based; settings: Dd2, 72 h
[4] = Chemical stability of compound in Tween20/ethanol/phosphate buffer at pH 2 assessed as drug degradation measured over 24 hrs; format: physicochemical; settings: read-out: Drug degradation
[5] = Metabolic stability in human liver microsomes assessed as parent compound remaining at 2 uM incubated for 40 mins in presence of NADPH by LC-MS/MS analysis; format: ADME, Microsome; settings: read-out: Stability
[6] = Half life in mouse infected with Plasmodium berghei at 10 mg/kg, po administered as single dose and measured for 24 hrs by LC-MS/MS analysis; format: ADME, organism-based; settings: in vivo
[7] = Tmax in mouse infected with Plasmodium berghei at 3 mg/kg, po administered as single dose and measured for 24 hrs by LC-MS/MS analysis; format: ADME, organism-based; settings: in vivo
[8] = Elimination half life in mouse infected with Plasmodium berghei at 3 mg/kg, po administered as single dose and measured for 24 hrs by LC-MS/MS analysis; format: ADME, organism-based; settings: in vivo, read-out: beta t1/2 (converted)
[9] = Chemical stability of compound in Tween20/ethanol/phosphate buffer at pH 7.5 assessed as drug degradation measured over 24 hrs; format: physicochemical; settings: read-out: Drug degradation
[10] = Selectivity index, ratio of IC50 for cytotoxicity against human HepG2 cells to IC50 for antiplasmodial activity against chloroquine-sensitive asexual blood stage Plasmodium falciparum 3D7; format: toxicity, cell-based; settings: read-out: Ratio IC50
[11] = Half life in mouse infected with Plasmodium berghei at 30 mg/kg, po administered as single dose and measured for 24 hrs by LC-MS/MS analysis; format: ADME, organism-based; settings: in vivo
[12] = Tmax in mouse infected with Plasmodium berghei at 30 mg/kg, po administered as single dose and measured for 24 hrs by LC-MS/MS analysis; format: ADME, organism-based; settings: in vivo
[13] = test system: Plasmodium falciparum; assay: Antiplasmodial activity against multidrug resistant asexual blood stage Plasmodium falciparum Dd2-B2 assessed as inhibition of parasite growth incubated for 72 hrs by SYBR green-based assay; format: functional, organism-based; settings: Dd2-B2, 72 h
[14] = Elimination half life in mouse infected with Plasmodium berghei at 10 mg/kg, po administered as single dose and measured for 24 hrs by LC-MS/MS analysis; format: ADME, organism-based; settings: in vivo, read-out: beta t1/2 (converted)
[15] = Elimination half life in mouse infected with Plasmodium berghei at 30 mg/kg, po administered as single dose and measured for 24 hrs by LC-MS/MS analysis; format: ADME, organism-based; settings: in vivo, read-out: beta t1/2 (converted)
[16] = Metabolic stability in human liver microsomes assessed as intrinsic clearance; format: ADME, Microsome
[17] = Observed AUC(0 to infinity) in mouse infected with Plasmodium berghei at 10 mg/kg, po administered as single dose and measured for 24 hrs by LC-MS/MS analysis; format: ADME, organism-based; design: dose 10 mg/kg, time 24 hrs, route po; settings: in vivo
[18] = AUC(0 to t) in mouse infected with Plasmodium berghei at 10 mg/kg, po administered as single dose and measured for 24 hrs by LC-MS/MS analysis; format: ADME, organism-based; design: time 24 hrs, dose 10 mg/kg, route po; settings: in vivo
[19] = test system: Plasmodium falciparum; assay: Induction of drug resistance in Plasmodium falciparum Dd2 clone FL2-C4 assessed as fold increase in IC50 incubated for 72 hrs by SYBR green-based assay; format: functional
[20] = test system: Plasmodium berghei; assay: Antimalarial activity against Plasmodium berghei infected in mouse assessed as reduction in parasitemia in blood at 10 mg/kg, po administered for 4 times starting from 4 to 72 hrs and measured after 96 hrs post infection (reference value: 0%); format: functional; design: scale not given: the % may be the effect or the level left
[21] = Cytotoxicity against HEK293 cells assessed as inhibition of cell growth incubated for 24 hrs by neutral red dye based analysis; format: toxicity; settings: human
[22] = Tmax in mouse infected with Plasmodium berghei at 10 mg/kg, po administered as single dose and measured for 24 hrs by LC-MS/MS analysis; format: ADME, organism-based; settings: in vivo
[23] = molecular target: Voltage-gated inwardly rectifying potassium channel KCNH2 (Homo sapiens, UniProt Q12809); assay: Inhibition of hERG by fluorescence polarization assay; format: toxicity
[24] = test system: Plasmodium berghei; assay: Antimalarial activity against Plasmodium berghei infected in mouse assessed as mean survival days at 50 mg/kg, po administered for 4 times starting from 4 to 72 hrs and monitered for 30 days (reference value: 4 days); format: functional; settings: time 30 day
[25] = test system: Plasmodium berghei; assay: Antimalarial activity against Plasmodium berghei infected in mouse assessed as reduction in parasitemia in blood at 3 mg/kg, po administered for 4 times starting from 4 to 72 hrs and measured after 96 hrs post infection (reference value: 0 %); format: functional; design: scale not given: the % may be the effect or the level left
[26] = test system: Plasmodium falciparum; assay: Induction of drug resistance in Plasmodium falciparum Dd2 clone FL3-C3 assessed as fold increase in IC50 incubated for 72 hrs by SYBR green-based assay; format: functional
[27] = test system: Plasmodium falciparum; assay: Antiplasmodial activity against multidrug resistant asexual blood stage Plasmodium falciparum Dd2 assessed as inhibition of parasite growth incubated for […] by HRP2-ELISA; format: functional, organism-based
[28] = test system: Plasmodium falciparum; assay: Antiplasmodial activity against sorbitol-synchronized early ring stage plasmodium falciparum NF54 trophozoites assessed as inhibition of parasite growth incubated for 72 hrs by SYBR green-based parasite susceptibility assay; format: functional, organism-based; settings: NF54, 72 h
[29] = AUC(0 to t) in mouse infected with Plasmodium berghei at 30 mg/kg, po administered as single dose and measured for 24 hrs by LC-MS/MS analysis; format: ADME, organism-based; design: dose 30 mg/kg, time 24 hrs, route po; settings: in vivo
[30] = test system: Plasmodium falciparum; assay: Inhibition of hemozoin formation in sorbitol-synchronized early ring stage plasmodium falciparum NF54 trophozoites assessed as reduction in hemozoin level at 2.5 times IC50 incubated for 28 hrs by flow cytometry analysis; format: functional
[31] = test system: Plasmodium falciparum; assay: Inhibition of hemozoin formation in sorbitol-synchronized early ring stage plasmodium falciparum NF54 trophozoites assessed as increase in free heme level at 2.5 times IC50 incubated for 28 hrs by flow cytometry analysis; format: functional
[32] = Cytotoxicity against human HeLa cells assessed as inhibition of cell growth incubated for 24 hrs by neutral red dye based analysis; format: toxicity
[33] = test system: Plasmodium berghei; assay: Antimalarial activity against Plasmodium berghei infected in mouse assessed as reduction in parasitemia in blood at 50 mg/kg, po administered for 4 times starting from 4 to 72 hrs and measured after 96 hrs post infection (reference value: 0%); format: functional; design: scale not given: the % may be the effect or the level left
[34] = Observed AUC(0 to infinity) in mouse infected with Plasmodium berghei at 30 mg/kg, po administered as single dose and measured for 24 hrs by LC-MS/MS analysis; format: ADME, organism-based; design: dose 30 mg/kg, time 24 hrs, route po; settings: in vivo
[35] = test system: Plasmodium berghei; assay: Antimalarial activity against Plasmodium berghei infected in mouse assessed as reduction in parasitemia in blood at 30 mg/kg, po administered for 4 times starting from 4 to 72 hrs and measured after 96 hrs post infection (reference value: 0%); format: functional; design: scale not given: the % may be the effect or the level left
[36] = Cmax in mouse infected with Plasmodium berghei at 30 mg/kg, po administered as single dose and measured for 24 hrs by LC-MS/MS analysis; format: ADME, organism-based; design: dose 30 mg/kg, time 24 hrs, route po; settings: in vivo
[37] = Half life in mouse infected with Plasmodium berghei at 3 mg/kg, po administered as single dose and measured for 24 hrs by LC-MS/MS analysis; format: ADME, organism-based; settings: in vivo
[38] = AUC(0 to t) in mouse infected with Plasmodium berghei at 3 mg/kg, po administered as single dose and measured for 24 hrs by LC-MS/MS analysis; format: ADME, organism-based; design: dose 3 mg/kg, time 24 hrs, route po; settings: in vivo
[39] = Cmax in mouse infected with Plasmodium berghei at 3 mg/kg, po administered as single dose and measured for 24 hrs by LC-MS/MS analysis; format: ADME, organism-based; design: time 24 hrs, dose 3 mg/kg, route po; settings: in vivo
[40] = test system: Plasmodium falciparum; assay: Antiplasmodial activity against chloroquine-sensitive asexual blood stage Plasmodium falciparum 3D7 assessed as inhibition of parasite growth incubated for […] by HRP2-ELISA; format: functional, organism-based
[41] = Cytotoxicity against human HepG2 cells assessed as inhibition of cell growth incubated for 24 hrs by neutral red dye based analysis; format: toxicity
[42] = test system: Plasmodium berghei; assay: Antimalarial activity against Plasmodium berghei infected in mouse assessed as mean survival days at 30 mg/kg, po administered for 4 times starting from 4 to 72 hrs and monitered for 30 days (reference value: 4 days); format: functional; settings: time 30 day

Sequence of Voltage-gated inwardly rectifying potassium channel KCNH2 (Q12809 whole entry): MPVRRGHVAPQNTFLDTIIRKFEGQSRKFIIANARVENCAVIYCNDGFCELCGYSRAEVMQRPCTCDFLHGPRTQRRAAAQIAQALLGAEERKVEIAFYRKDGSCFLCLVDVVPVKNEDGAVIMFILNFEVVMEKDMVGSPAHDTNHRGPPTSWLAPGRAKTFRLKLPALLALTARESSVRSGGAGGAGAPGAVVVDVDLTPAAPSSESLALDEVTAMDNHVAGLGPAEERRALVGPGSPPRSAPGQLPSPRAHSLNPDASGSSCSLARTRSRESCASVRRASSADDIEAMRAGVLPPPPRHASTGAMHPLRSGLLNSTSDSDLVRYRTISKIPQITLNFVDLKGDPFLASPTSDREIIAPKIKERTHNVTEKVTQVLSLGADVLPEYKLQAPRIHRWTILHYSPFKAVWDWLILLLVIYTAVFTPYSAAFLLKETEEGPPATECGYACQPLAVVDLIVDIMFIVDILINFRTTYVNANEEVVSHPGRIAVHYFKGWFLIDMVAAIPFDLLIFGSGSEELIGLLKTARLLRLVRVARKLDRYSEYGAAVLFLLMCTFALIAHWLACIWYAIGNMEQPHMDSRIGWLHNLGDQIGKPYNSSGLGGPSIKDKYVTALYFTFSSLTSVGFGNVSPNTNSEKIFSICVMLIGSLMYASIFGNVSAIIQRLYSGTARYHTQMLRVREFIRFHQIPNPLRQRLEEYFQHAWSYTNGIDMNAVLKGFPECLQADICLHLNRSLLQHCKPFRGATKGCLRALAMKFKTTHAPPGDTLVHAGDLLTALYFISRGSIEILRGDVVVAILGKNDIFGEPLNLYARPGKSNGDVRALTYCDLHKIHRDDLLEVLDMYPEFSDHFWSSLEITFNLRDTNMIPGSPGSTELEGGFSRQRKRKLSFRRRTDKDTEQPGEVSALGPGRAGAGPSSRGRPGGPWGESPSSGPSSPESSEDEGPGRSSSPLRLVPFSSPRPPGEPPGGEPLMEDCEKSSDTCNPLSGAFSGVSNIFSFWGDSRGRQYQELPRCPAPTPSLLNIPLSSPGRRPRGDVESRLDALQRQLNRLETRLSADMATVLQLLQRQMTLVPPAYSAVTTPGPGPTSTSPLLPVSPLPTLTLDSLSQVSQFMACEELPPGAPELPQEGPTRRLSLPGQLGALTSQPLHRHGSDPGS

COc1ccc(/N=C(\N)CC(O)c2cc3c(F)cc(F)cc3c3cc(C(F)(F)F)ccc23)cc1.Cl (configuration not stated)
Cmax [1]: 23 ng/mL | AUC [2]: 21.5 ng·h/mL | IC50 [3]: 15 nM | degraded at 24 h [4]: 0.1% | remaining at 40 min, 2 µM [5]: 86% | t1/2 [6]: 248 min | Tmax [7]: 60 min | half-life [8]: 7.58 min | degraded at 24 h [9]: 1% | selectivity ratio [10]: 860 | t1/2 [11]: 421 min | Tmax [12]: 60 min | IC50 [13]: 15.3 nM | half-life [14]: 7.91 min | half-life [15]: 4.18 min | CLH [16]: 9 µL/min/mg | AUC [17]: 199.7 ng·h/mL | AUCt [18]: 192.1 ng·h/mL | fold change (FC) [19]: 3 | Activity [20]: 99.9% | IC50 at 24 h [21]: 36800 nM | Tmax [22]: 60 min | IC50 [23]: 190 nM | MSD [24]: 27 days | Activity [25]: 0% | fold change (FC) [26]: 3 | IC50 [27]: 12 nM | IC50 [28]: 8.4 nM | AUCt [29]: 783.1 ng·h/mL | inhibition [30]: Active | inhibition [31]: Active | IC50 at 24 h [32]: 46100 nM | Activity [33]: 99.8% | AUC [34]: 848.1 ng·h/mL | Activity [35]: 99.9% | Cmax [36]: 57.3 ng/mL | t1/2 [37]: 313 min | AUCt [38]: 20.4 ng·h/mL | Cmax [39]: 3.3 ng/mL | IC50 [40]: 5 nM | IC50 at 24 h [41]: 4300 nM | MSD [42]: 17 days
